Paper PMC3840147 (ACS chemical biology, 2013)

Assays:
SENP7 = target: T1, SENP7 (Homo sapiens, UniProt Q9BQF6); test: DUB-Glo bioluminescent peptide substrate assay, SENP7; assay type: biochemical; conditions: read-out: SENP7 IC50
T1 sequence (Q9BQF6 760-1050 limits assumed): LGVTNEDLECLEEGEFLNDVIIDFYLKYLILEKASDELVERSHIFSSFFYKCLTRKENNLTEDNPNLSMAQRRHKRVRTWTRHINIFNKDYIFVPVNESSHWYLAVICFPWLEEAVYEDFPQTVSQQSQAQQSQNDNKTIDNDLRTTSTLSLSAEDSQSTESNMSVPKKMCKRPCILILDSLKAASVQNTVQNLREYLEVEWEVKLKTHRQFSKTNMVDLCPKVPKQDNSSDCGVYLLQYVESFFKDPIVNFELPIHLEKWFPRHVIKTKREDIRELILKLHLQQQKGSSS

SENP2 = target: T2, SENP2 (Homo sapiens, UniProt Q9HC62); test: DUB-Glo bioluminescent peptide substrate assay, SENP2; assay type: biochemical; conditions: read-out: SENP2 IC50
T2 sequence (Q9HC62 364-589): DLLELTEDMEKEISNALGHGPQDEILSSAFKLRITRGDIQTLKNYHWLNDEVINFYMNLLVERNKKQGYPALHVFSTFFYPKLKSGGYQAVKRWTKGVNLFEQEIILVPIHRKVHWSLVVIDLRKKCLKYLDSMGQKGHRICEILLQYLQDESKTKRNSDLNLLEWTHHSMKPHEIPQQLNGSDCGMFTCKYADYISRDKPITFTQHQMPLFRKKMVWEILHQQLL

HeLa cells = test: Cellular SENP inhibition: SUMOylated proteins in HeLa cells by Western blot; assay type: cell-based; conditions: increasing concentrations, 48 h

| Structure (SMILES) | IC50 (SENP7) | IC50 (SENP2) | accumulation of SUMO-1 conjugates in cells (HeLa cells) | accumulation of SUMO-2/3 conjugates in cells (HeLa cells) |
| --- | --- | --- | --- | --- |
| Nc1c(N=Nc2ccccc2)cc(S(=O)(=O)O)c2ccccc12 [SPI-08] | 2800 ± 1600 nM | – | – | – |
| Cc1cc(N)ccc1/N=N/c1cc(S(=O)(=O)O)c2cccc(S(=O)(=O)O)c2c1 [SPI-07] | 1900 ± 2200 nM | > 60000 nM | – | – |
| Nc1ccc2cc(S(=O)(=O)O)cc(S(=O)(=O)O)c2c1N=Nc1ccc(S(=O)(=O)O)cc1 [SPI-09] | 1900 ± 2100 nM | – | – | – |
| Nc1ccc2ccccc2c1N=Nc1ccc(/C=C/c2ccc(N=Nc3c(N)ccc4ccccc34)cc2S(=O)(=O)O)c(S(=O)(=O)O)c1 [SPI-01] | – | – | less significant effects | SUMO-2/3 conjugates accumulated in cells and this accumulation correlated with inhibitor concentration |
